Several values for one entry are separate records, joined by “and”; a condition that tells them apart may be missing. Equal entries are not always repeated. Toxic doses and inconclusive results are not listed.
Test system: P388 leukemia ip, CD2F1 mice, survival T/C
Experiment: NCI In Vivo Anticancer Drug Screen. Data for tumor model P388 Leukemia (intraperitoneal) in CD2F1 (CDF1) mice
Settings: endpoint: median survival time, higher = longer survival
Procedure, shortened: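 Mice carrying the transplanted tumor received test compound or vehicle. Survival was recorded in each group, and the value is the treated-group measurement divided by that of the vehicle-treated control group.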

[1] = dose: 100.0 mg/kg/injection, schedule: Q04DX003 (ip), vehicle: saline
[2] = dose: 200.0 mg/kg/injection, schedule: Q04DX003 (ip), vehicle: saline
[3] = dose: 400.0 mg/kg/injection, schedule: Q04DX003 (ip), vehicle: saline
[4] = dose: 50.0 mg/kg/injection, schedule: Q04DX003 (ip), vehicle: saline with Tween-80
[5] = dose: 25.0 mg/kg/injection, schedule: Q01DX009 (ip), vehicle: saline with Tween-80
[6] = dose: 50.0 mg/kg/injection, schedule: Q01DX009 (ip), vehicle: saline with Tween-80
[7] = dose: 60.0 mg/kg/injection, schedule: Q01DX005 (ip), vehicle: saline with Tween-80
[8] = dose: 120.0 mg/kg/injection, schedule: Q01DX005 (ip), vehicle: saline with Tween-80
[9] = dose: 240.0 mg/kg/injection, schedule: Q01DX005 (ip), vehicle: saline with Tween-80
[10] = dose: 50.0 mg/kg/injection, schedule: Q01DX005 (ip), vehicle: Klucel (hydroxypropylcellulose) (HPC)
[11] = dose: 100.0 mg/kg/injection, schedule: Q01DX005 (ip), vehicle: Klucel (hydroxypropylcellulose) (HPC)
[12] = dose: 200.0 mg/kg/injection, schedule: Q01DX005 (ip), vehicle: Klucel (hydroxypropylcellulose) (HPC)
[13] = dose: 100.0 mg/kg/injection, schedule: Q01DX009 (ip), vehicle: saline
[14] = dose: 200.0 mg/kg/injection, schedule: Q01DX009 (ip), vehicle: saline
[15] = dose: 50.0 mg/kg/injection, schedule: Q01DX009 (ip), vehicle: saline

NC(=O)NC1OC(CO)C(O)C(O)C1O (stereo unspecified)
T/C [1]: 95 % of control | T/C [2]: 95 % of control | T/C [3]: 100 % of control

C/C(=N\NC(N)=S)c1ccccc1
T/C (dose: 3.12 mg/kg/injection, schedule: Q01DX009 (ip), vehicle: Klucel (hydroxypropylcellulose) (HPC)): 106 % of control | T/C (dose: 6.25 mg/kg/injection, schedule: Q01DX009 (ip), vehicle: Klucel (hydroxypropylcellulose) (HPC)): 111 % of control | T/C (dose: 12.5 mg/kg/injection, schedule: Q01DX009 (ip), vehicle: Klucel (hydroxypropylcellulose) (HPC)): 114 % of control

COc1ccc(C(O)C2c3cc4c(cc3CCN2C)OCO4)c(CO)c1OC (stereo unspecified)
T/C (dose: 25.0 mg/kg/injection, schedule: Q01DX001 (ip), vehicle: saline + alcohol): 88 % of control | T/C (dose: 50.0 mg/kg/injection, schedule: Q01DX001 (ip), vehicle: saline + alcohol): 95 % of control | T/C (dose: 100.0 mg/kg/injection, schedule: Q01DX001 (ip), vehicle: saline + alcohol): 104 % of control

C/C(=N\NC(N)=O)C1(c2ccccc2)CCN(C)CC1
T/C (dose: 100.0 mg/kg/injection, schedule: Q04DX002 (ip), vehicle: Klucel (hydroxypropylcellulose) (HPC)): 100 % of control | T/C (dose: 200.0 mg/kg/injection, schedule: Q04DX002 (ip), vehicle: Klucel (hydroxypropylcellulose) (HPC)): 97 % of control | T/C (dose: 400.0 mg/kg/injection, schedule: Q04DX002 (ip), vehicle: Klucel (hydroxypropylcellulose) (HPC)): 96 % of control

Cc1ccc(CNc2ccc([N+](=O)[O-])cc2)cc1
T/C [4]: 100 % of control | T/C (dose: 100.0 mg/kg/injection, schedule: Q04DX003 (ip), vehicle: saline with Tween-80): 100 % of control | T/C (dose: 200.0 mg/kg/injection, schedule: Q04DX003 (ip), vehicle: saline with Tween-80): 95 % of control

COc1ccc(C[n+]2ccc3c([N+](=O)[O-])cccc3c2)cc1
T/C (dose: 7.5 mg/kg/injection, schedule: Q01DX005 (ip), vehicle: saline + Tween-80 + alcohol): 111 % of control | T/C (dose: 15.0 mg/kg/injection, schedule: Q01DX005 (ip), vehicle: saline + Tween-80 + alcohol): 116 % of control | T/C (dose: 30.0 mg/kg/injection, schedule: Q01DX005 (ip), vehicle: saline + Tween-80 + alcohol): 116 % of control

[Cl][Cu][Cl]
T/C (dose: 3.13 mg/kg/injection, schedule: Q04DX003 (ip), vehicle: saline): 90 % of control | T/C (dose: 6.25 mg/kg/injection, schedule: Q04DX003 (ip), vehicle: saline): 104 % of control

CCCC(=O)Oc1c(OC)cc(O)c2c(=O)c(O)c(-c3ccc(OC)cc3)oc12
T/C (dose: 14.0 mg/kg/injection, schedule: Q01DX005 (ip), vehicle: Klucel (hydroxypropylcellulose) (HPC)): 89 % of control | T/C (dose: 56.0 mg/kg/injection, schedule: Q01DX005 (ip), vehicle: Klucel (hydroxypropylcellulose) (HPC)): 87 % of control | T/C (dose: 112.0 mg/kg/injection, schedule: Q01DX005 (ip), vehicle: Klucel (hydroxypropylcellulose) (HPC)): 108 % of control

O=C(Nc1ccc(F)cc1F)Oc1ccc2cc(Br)ccc2c1
T/C (dose: 50.0 mg/kg/injection, schedule: Q01DX009 (ip), vehicle: saline + alcohol): 97 % of control | T/C (dose: 100.0 mg/kg/injection, schedule: Q01DX009 (ip), vehicle: saline + alcohol): 91 % of control | T/C (dose: 200.0 mg/kg/injection, schedule: Q01DX009 (ip), vehicle: saline + alcohol): 100 % of control

O=C1OC2C(I)C3CC1C2C3 (stereo unspecified)
T/C [5]: 100 % of control | T/C (dose: 25.0 mg/kg/injection, schedule: Q04DX003 (ip), vehicle: saline with Tween-80): 104 % of control | T/C [6]: 110 % of control | T/C [4]: 104 % of control

O=C(Nc1ccc(CCO)cc1)c1cccc(F)c1
T/C [7]: 93 % of control | T/C [8]: 86 % of control | T/C [9]: 86 % of control

CC(C)(C)C1=NN=C(C(C)(C)C)CSC1
T/C [7]: 108 % of control | T/C [8]: 103 % of control | T/C [9]: 104 % of control

O=C(N/N=C/c1ccccc1Cl)C(=O)Nc1cccc(C(F)(F)F)c1
T/C [10]: 95 % of control | T/C [11]: 96 % of control | T/C [12]: 99 % of control

CCCCCCCC/C=C/CCCCCCCCCCCCBr
T/C [13]: 90 % of control | T/C [1]: 95 % of control | T/C [14]: 104 % of control | T/C [2]: 95 % of control | T/C (dose: 400.0 mg/kg/injection, schedule: Q01DX009 (ip), vehicle: saline): 100 % of control | T/C [3]: 100 % of control

O/N=C/C(=Nc1ccccc1N=C(/C=N/O)NO)NO
T/C [7]: 95 % of control | T/C [8]: 103 % of control | T/C [9]: 94 % of control

O=C(O)CCCOC(C[N+](=O)[O-])C(Cl)(Cl)Cl (stereo unspecified)
T/C [6]: 95 % of control | T/C (dose: 100.0 mg/kg/injection, schedule: Q01DX009 (ip), vehicle: saline with Tween-80): 100 % of control | T/C (dose: 200.0 mg/kg/injection, schedule: Q01DX009 (ip), vehicle: saline with Tween-80): 96 % of control

CN(Cc1cnc2nc(N)nc(N)c2n1)c1ccc(C(=O)NC(CCC(=O)O)C(=O)O)cc1Br (stereo unspecified)
T/C (dose: 0.62 mg/kg/injection, schedule: Q01DX009 (ip), vehicle: saline sonified): 209 % of control | T/C (dose: 1.25 mg/kg/injection, schedule: Q01DX009 (ip), vehicle: saline sonified): 236 % of control | T/C (dose: 2.5 mg/kg/injection, schedule: Q01DX009 (ip), vehicle: saline sonified): 245 % of control | T/C (dose: 5.0 mg/kg/injection, schedule: Q04DX003 (ip), vehicle: saline with Tween-80): 200 % of control | T/C (dose: 6.6 mg/kg/injection, schedule: Q04DX003 (ip), vehicle: saline with Tween-80): 166 % of control | T/C (dose: 10.0 mg/kg/injection, schedule: Q04DX003 (ip), vehicle: saline with Tween-80): 166 % of control and 200 % of control

CCOC(=O)C(C)(NC(=O)c1ccccc1)C(=O)OCC
T/C (dose: 60.0 mg/kg/injection, schedule: Q01DX005 (ip), vehicle: saline): 101 % of control and 105 % of control | T/C (dose: 120.0 mg/kg/injection, schedule: Q01DX005 (ip), vehicle: saline): 109 % of control | T/C (dose: 240.0 mg/kg/injection, schedule: Q01DX005 (ip), vehicle: saline): 100 % of control and 97 % of control

Cc1nc(Nc2c(C)cccc2C)c2c(C)c(Cc3ccccc3)[nH]c2n1
T/C [10]: 89 % of control | T/C [11]: 89 % of control | T/C [12]: 104 % of control

CCOC(=O)c1ccc(NC(=O)Oc2cc(=O)oc3ccccc23)cc1
T/C [7]: 91 % of control | T/C [8]: 94 % of control | T/C [9]: 99 % of control

C/C(=C/c1cc(Br)c2c(c1)OCO2)[N+](=O)[O-]
T/C (dose: 100.0 mg/kg/injection, schedule: Q01DX001 (ip), vehicle: saline with Tween-80): 110 % of control | T/C (dose: 200.0 mg/kg/injection, schedule: Q01DX001 (ip), vehicle: saline with Tween-80): 100 % of control | T/C (dose: 400.0 mg/kg/injection, schedule: Q01DX001 (ip), vehicle: saline with Tween-80): 99 % of control

CNC(=S)N/N=C/Cn1cc([N+](=O)[O-])c(=O)[nH]c1=O
T/C [10]: 98 % of control | T/C [11]: 100 % of control

Nc1cccc2[nH]c(=O)c3ccccc3c12
T/C [7]: 93 % of control | T/C [8]: 105 % of control | T/C [9]: 106 % of control

CC1OC2COC(C)OC2C(C2CN2)O1 (stereo unspecified)
T/C [15]: 110 % of control | T/C [13]: 100 % of control | T/C [14]: 117 % of control

CCn1c(=O)c(C#N)c2n(CC)c3cc(C)c(C)cc3n2c1=O
T/C [7]: 90 % of control | T/C [8]: 86 % of control | T/C [9]: 86 % of control

O=NN(CCF)C(=O)Oc1cc(Cl)c(Cl)cc1Cl
T/C (dose: 12.0 mg/kg/injection, schedule: Q01DX005 (ip), vehicle: saline with Tween-80): 170 % of control | T/C (dose: 25.0 mg/kg/injection, schedule: Q01DX005 (ip), vehicle: saline with Tween-80): 202 % of control

CC(C)CCCCCCCCCCCCC(O)CC(=O)O (stereo unspecified)
T/C (dose: 8.75 mg/kg/injection, schedule: Q01DX005 (ip), vehicle: Klucel + Tween-80): 92 % of control | T/C (dose: 17.5 mg/kg/injection, schedule: Q01DX005 (ip), vehicle: Klucel + Tween-80): 86 % of control | T/C (dose: 35.0 mg/kg/injection, schedule: Q01DX005 (ip), vehicle: Klucel + Tween-80): 95 % of control

O=S(=O)(OC1CCC2CCC1O2)c1ccc(Br)cc1 (stereo unspecified)
T/C [15]: 86 % of control | T/C [13]: 100 % of control | T/C [14]: 100 % of control

c1nc(SSc2ncnc3nc[nH]c23)c2[nH]cnc2n1
T/C (dose: 12.5 mg/kg/injection, schedule: Q01DX009 (ip), vehicle: saline with Tween-80): 113 % of control | T/C [5]: 118 % of control | T/C [6]: 100 % of control

CCCN(CCC)C1=CC(=O)C(N(CCC)CCC)=CC1=O
T/C [10]: 117 % of control | T/C [11]: 89 % of control

COc1ccc(/C=N/NC(=O)c2ccc(Cl)cc2Cl)cc1OC
T/C [7]: 96 % of control | T/C [8]: 96 % of control | T/C [9]: 92 % of control
